Source: patent publication US20260224555A1, “NEW PHENYLQUINOLONE COMPOUND HAVING ANTIBACTERIAL AND ANTI-CANCER FUNCTIONS AND PREPARATION THEREOF” (AlphaMol Science Ltd (Shanghai), priority 2022, published 2026)
≈ marks a conversion by molar mass, not a printed value. Where two headings read alike, the source gives them in different places.

What was measured:
Format in all cases: cell-based
S. aureus ATCC 43300 = assay: In vitro antibacterial activity assay (MIC, broth dilution); conditions: Staphylococcus aureus, ATCC43300
Description: (§1) The method used to indicate the activity of the compounds in this example is to record the minimum inhibitory concentration (MIC) of the compounds against bacteria. The specific experimental method is as follows:
(§2) 1. The bacterial liquid cultured from a single colony was taken, and diluted into autoclaved CAMHB broth in a ratio of 1:1000, and mixed well.
(§3) 2. The prepared drug solution was filtered through a sterile 0.22 µm syringe filter and placed in a sterile EP tube for later use.
(§4) 3. A 96-well plate was taken, and 20 µL of drug solution ([…]) was added to each well in the first column of the 96-well plate. Then, 180 µL of diluted bacterial liquid was added and mixed well (Perform 3 replicate rows for each drug).
(§5) The same process was performed for the hydrochloride drug.
(§6) 4. 100 μL of diluted bacterial liquid was added to each well in the remaining 11 columns of the 96-well plate. Drugs are the same as above.
(§7) 5. Serial dilution: 100 μL of liquid was taken from the first column to the second column, mixed well, then 100 μL of liquid was taken from the second column to the third column, mixed well, and so on, sequentially diluting down to the last column (column 12). After mixing column 12 well, 100 μL of liquid thereof was discarded. The drug concentration in each well was decreased by two-fold serially (the concentration in the first well is 40 μg/mL).
(§8) 6. Blank CAMHB broth without added bacteria liquid was added to 3 blank wells in the 96-well plate, as negative control.
(§9) 7. The diluted bacterial liquid was added to 3 blank wells in the 96-well plate, as positive control.
(§10) 8. Incubated at 37° C. for 16 hours.
(§11) 9. Results reading: the minimum inhibitory concentration is the minimum drug concentration at which no bacterial growth is visible to the naked eye and without turbidity.

E. coli ATCC 25922 = assay: as above; conditions: Escherichia coli, ATCC25922
Description: as §1, §2, §3, §4, §5, §6, §7, §8, §9, §10, §11

Hela = assay: In vitro anticancer activity test (MTT cell proliferation); conditions: Homo sapiens, average proliferation inhibition rate at the dosage of 40 μM, read-out: Hela Average inhibition rate %
Procedure: The anticancer activity of the compounds was tested using an in vitro cancer cell tests. The specific test method is as follows:
1. Cell recovery and culture method: the cryovial was taken out from the liquid nitrogen container firstly, soaked directly in 37° C. warm water, and shaked from time to time to let it thaw as soon as possible. Then, the cryovial was transferred to a clean bench, and the lid was open. The cell suspension was taken into a centrifuge tube using a rubber-tipped dropper and more than 10 times the culture medium was added, mixed well, and centrifuged at 50 g for 5 minutes. Then, the supernatant was discarded, complete culture medium containing 10% fetal bovine serum was added to resuspend the cells, the cells was counted, the cell density was adjusted, and then inoculated into a culture bottle. The culture bottle was placed in a cell culture incubator at 5% CO2 and 37° C. The complete culture medium was replaced once the next day and the culture was continued.
2. Cell passaging method: adherent cells in the logarithmic growth phase were placed in a clean bench, the original culture medium was discarded, and washed three times with 1×PBS. An appropriate amount of 0.25% trypsin digestion solution was added to moisten the cells, and then the trypsin solution was aspirated. The cells were placed in a cell culture incubator at 5% CO2 and 37° C. for digestion for a suitable time, and observed under a microscope. When 90% of the cells become round, the cells were moved immediately to the clean bench and complete culture medium was added to terminate digestion. Then, the cells were dislodged by pipetting up and down with a rubber-tipped dropper to single cells. The cells were counted, and the cell density was adjusted. The cells were inoculated into a suitable culture bottle or dish, added enough complete culture medium, and placed in a cell culture incubator at 5% CO2 and 37° C. for static culture.
For suspension cells in the logarithmic phase, the original culture medium was directly centrifuged at 50 g for 5 minutes, the supernatant was discarded, and the cells were washed once with PBS and centrifuged. After discarding the supernatant, the complete culture medium was added and the cells were dispersed using a rubber-tipped dropper. The cells are counted, and the cell density was adjusted. The cells were inoculated into appropriate culture bottles or culture dishes, and sufficient complete culture medium was added, and the cells were cultured in a cell culture incubator at 5% CO2 and 37° C.
3. Cell proliferation assay: cells in good state in logarithmic phase were taken and appropriate amount of the cells was inoculated into 96-well plates according to the cell passage treatment method, with each well containing 180 μL complete medium. After the cells growth was recovered and the number of cells in each well is 5000±500, a drug was added for treatment.
After drug treatment during the experimental time, MTT solution with a final concentration of 0.5 mg/mL was added to each well, and placed in a cell culture incubator at 5% CO2 and 37° C. to allow a fully reaction of MTT with cells. After 4 hours, the solution in the 96-well plate was discarded, 100 µL of DMSO was added, and shaked to dissolve the formazan precipitated at the bottom of the plate, and the absorbance value of samples was detected at a wavelength of 570 nm using a microplate reader. Calculation method of cell viability rate:
Table 4 lists some compounds that have inhibitory effects against both of bacteria and cancer cells. In the table, the inhibitory effects against cancer cells are shown: the average proliferation inhibition rate (%) against cancer cells at the dosage of 40 μM.

[1] = Table 3, read-out: MIC S. aureus ATCC 43300
[2] = Table 3, read-out: MIC E. coli ATCC 25922
[3] = Table 4, read-out: S. aureus ATCC 43300 MIC
[4] = Table 4, read-out: E. coli ATCC 25922 MIC

Structure (SMILES) | MIC (S. aureus ATCC 43300; [1]) [µg/mL] | MIC (E. coli ATCC 25922; [2]) [µg/mL] | MIC (S. aureus ATCC 43300; [3]) [µg/mL] | MIC (E. coli ATCC 25922; [4]) [µg/mL] | inhibition at 40 µM (Hela) [%]
CS(=N)(=O)c1ccc(-c2cc3c(cc2F)c(=O)c(C(=O)O)cn3C2CC2)cc1 (stereo not shown) [Example 64] | 0.1 to 1 (≈ 0.25 to 2.5 µM) | 0.1 to 1 (≈ 0.25 to 2.5 µM) | – | – | –
O=C(O)c1cn(C2CC2)c2cc(-c3ccnc(NC(=O)C(F)(F)F)c3)c(F)cc2c1=O [Example 57] | 0.1 to 1 (≈ 0.23 to 2.3 µM) | 0.1 to 1 (≈ 0.23 to 2.3 µM) | – | – | –
Nc1cnc(-c2cc3c(cc2F)c(=O)c(C(=O)O)cn3C2CC2)cc1F [Example 91] | 0.1 to 1 (≈ 0.28 to 2.8 µM) | 0.1 to 1 (≈ 0.28 to 2.8 µM) | – | – | –
CCCCCNS(=O)(=O)c1ccc(-c2c(F)cc3c(=O)c(C(=O)O)cn(C4CC4)c3c2OC)cc1 [Example 80] | ≤ 0.1 | 0.1 to 1 (≈ 0.199 to 1.99 µM) | ≤ 1 | ≤ 1 | ≥ 50
CCCCCCCNS(=O)(=O)c1ccc(-c2cc3c(cc2F)c(=O)c(C(=O)O)cn3C2CC2)cn1 [Example 128] | ≤ 0.1 | 1 to 8 (≈ 1.99 to 15.9 µM) | ≤ 1 | ≥ 1 | ≥ 20
N#Cc1cc(-c2cc3c(cc2F)c(=O)c(C(=O)O)cn3C2CC2)ccc1S(=O)(=O)NCCCC(F)(F)F [Example 111] | 0.1 to 1 (≈ 0.186 to 1.86 µM) | 0.1 to 1 (≈ 0.186 to 1.86 µM) | – | – | –

More lines, main results first:

MIC (S. aureus ATCC 43300; [1]) [µg/mL] | MIC (E. coli ATCC 25922; [2]) [µg/mL] | MIC (S. aureus ATCC 43300; [3]) [µg/mL] | MIC (E. coli ATCC 25922; [4]) [µg/mL] | Structure (SMILES) | inhibition at 40 µM (Hela) [%]
0.1 to 1 (≈ 0.294 to 2.94 µM) | 0.1 to 1 (≈ 0.294 to 2.94 µM) | – | – | Nc1cnc(-c2cc3c(cc2F)c(=O)c(C(=O)O)cn3C2CC2)nc1 [Example 83] | –
1 to 8 (≈ 2.6 to 20.8 µM) | ≤ 0.1 | ≥ 1 | ≤ 1 | COc1c(-c2ccnc(CO)c2)c(F)cc2c(=O)c(C(=O)O)cn(C3CC3)c12 [Example 148] | ≥ 20
≤ 0.1 | ≤ 0.1 | – | – | COc1c(-c2ccc(S(N)(=O)=O)c([N+](=O)[O-])c2)c(F)cc2c(=O)c(C(=O)O)cn(C3CC3)c12 [Example 110] | –
≤ 0.1 | 0.1 to 1 (≈ 0.224 to 2.24 µM) | ≤ 1 | ≤ 1 | COc1c(-c2ccc([S+]([O-])CCO)cc2)c(F)cc2c(=O)c(C(=O)O)cn(C3CC3)c12 (stereo not shown) [Example 86] | ≥ 20
≤ 0.1 | ≤ 0.1 | ≤ 1 | ≤ 1 | O=C(O)c1cn(C2CC2)c2cc(-c3ccc4c(c3)S(=O)(=O)NC4)c(F)cc2c1=O [Example 113] | ≥ 20
